Tests used:
[1] = molecular target: T1, Recombinant human IL4I1 (Homo sapiens, UniProt Q96RQ9); assay: Evaluation of Ki, fluorometric IL4I1 assay; type: biochemical; conditions: for Ki: average of three experiments; for IL4I1 Inhibitor: recombinant human IL4I1, 30 min pre-incubation
T1 construct: purchased R&D Systems, Inc
T1 sequence (Q96RQ9 22-567): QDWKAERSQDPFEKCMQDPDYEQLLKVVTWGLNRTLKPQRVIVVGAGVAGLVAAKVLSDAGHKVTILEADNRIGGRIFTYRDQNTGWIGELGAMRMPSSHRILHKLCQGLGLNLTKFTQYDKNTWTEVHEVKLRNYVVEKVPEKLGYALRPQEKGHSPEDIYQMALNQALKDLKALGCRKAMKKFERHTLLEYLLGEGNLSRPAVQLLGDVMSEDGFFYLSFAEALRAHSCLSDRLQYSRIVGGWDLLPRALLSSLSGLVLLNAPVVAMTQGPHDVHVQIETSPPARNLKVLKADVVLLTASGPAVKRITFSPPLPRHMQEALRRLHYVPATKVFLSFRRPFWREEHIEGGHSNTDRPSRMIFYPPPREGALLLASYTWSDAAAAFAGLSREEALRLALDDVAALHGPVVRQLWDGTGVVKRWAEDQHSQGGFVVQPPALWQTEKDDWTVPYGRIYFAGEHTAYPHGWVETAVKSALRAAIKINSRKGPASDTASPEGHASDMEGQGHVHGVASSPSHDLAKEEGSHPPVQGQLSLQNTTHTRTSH
Description: Evaluation of Ki. Recombinant human IL4I1 (from R&D Systems, Inc) was diluted in PBS at 100 µg/mL and pre-incubated for 30 min with decreasing amounts of each inhibitor dissolved in DMSO (50, 25, and 2.5 μM) or DMSO as a control. The activity was tested in the presence of various amounts of substrate ([…] phenylalanine) using the fluorometric IL4I1 assay described by Carbonnelle-Puscian et al. (Leukemia, 2009, volume 23, pages 952-960 (2009). Ki were calculated using Graph Pad Prism.
Recombinant human IL4I1 was diluted in PBS at 100 µg/mL and pre-incubated for 30 min with decreasing amounts of each inhibitor dissolved in DMSO (50, 25, or 2.5 μM) or DMSO alone, as a control, and IL4I1 measured. […] Compound 13 inhibits IL4l1 activity with an almost 10-fold higher Ki.

[2] = system: Jurkat cells; assay: Jurkat cell counts (Trypan blue); type: cell-based; conditions: for Jurkat cell proliferation measured by cell counting: Trypan blue counts at days 1, 2, 3 and 6
Description: (§1) Cell counts. Jurkat cells were seeded at 0.1×10^6/mL in a 24-well plate and an aliquot mixed with Trypan blue and counted at days 1, 2, 3, and 6 using disposable Fast-read 10 chambers. Evaluation of metabolic proliferation. Jurkat cells were seeded at 0.1×10^6/mL in a 96-well plate and incubated at 37° C. in 5% CO2 for various times. At each time point, cells were centrifuged, the medium removed, and CellTiter 96® Non-Radioactive Cell Proliferation Assay reagent (Promega) added and the cells incubated an additional 4 h before measuring the optical density at 570 nm in a plate reader (BMG Labtech Fluostar Optima).
(§2) (A) Jurkat cells were seeded at 0.1×10^6/mL in a 24-well plate and an aliquot mixed with Trypan blue and counted at days 1, 2, 3, and 6. Data are the average±SD of three independent experiments. (B) Jurkat cells were seeded at 0.1×10^6/mL in a 96-well plate and incubated at 37° C. in 5% CO2 for the times indicated in FIG. 2. At each time point, cells were centrifuged, the medium removed, and the CellTiter 96® Non-Radioactive Cell Proliferation Assay (Promega) performed. Data are reported as the percentage of proliferation relative to that of the control samples (treated with DMSO) and are the average±SD of three independent experiments. *** p<0,001, **** p<0,0001 Two-way ANOVA test.

[3] = system: Jurkat cells; assay: Metabolic proliferation (CellTiter 96 Non-Radioactive Cell Proliferation Assay); type: cell-based; conditions: CellTiter 96, relative to DMSO control
Description: as §1, §2

[4] = system: Jurkat cells; assay: Evaluation of apoptosis, activated caspase-3 staining, Jurkat cells; type: cell-based; conditions: 100 μM, 24 h
Description: (§3) Evaluation of Apoptosis. Cells were seeded at 0.5×10^6/mL in 24-well plates, with or without the compounds at 100 μM or 10 μM etoposide (VP16) as a positive control, and incubated at 37° C. for 24 h. Cells were then fixed and permeabilized using cytox/cytoperm solution (BD Bioscience) followed by the addition of anti-activated caspase 3-AlexaFluor 647 (Rabbit anti-active Caspase 3 clone C92-605, BD Pharmingen). Caspase-3 positive cells were evaluated using a Cyan ADP LX7 (Beckman Coulter) and analyzed using Flowjo.
(§4) (A) Activated caspase-3 staining of Jurkat cells and (B) PBMC. Cells at 0.5×10^6/mL were seeded in 24-well plates with or without the compounds at 100 μM or 10 μM etoposide (VP16), as a positive control, and incubated at 37° C. for 24 h. Twenty-four hours after treatment, apoptotic Caspase-3 positive cells were evaluated by FACS. Data are expressed as the percentage of Caspase-3 positive cells±SD from three independent experiments.

[5] = system: PBMC; assay: Evaluation of apoptosis, activated caspase-3 staining, PBMC; type: cell-based, human; conditions: 100 μM, 24 h
Description: as §3, §4

[6] = system: PBMCs; assay: Cell proliferation of CPD eFluor670-labeled, anti-CD3 stimulated PBMCs (FACS); type: cell-based, human; conditions: for division index / proliferation index: PBMCs, relative to cells treated with DMSO; for proliferation of PBMCs: anti-CD3 stimulated, days 3 and 6, relative to DMSO
Description: (§5) Evaluation of cell proliferation. Jurkat cells and PBMCs were labeled with 2 μM Cell Proliferation Dye (CPD) eFluor670 for 10 min at 37° C. DMSO or the compounds were added to labeled PBMCs or Jurkat cells before putting them in culture at 0.2×10^6/well. Jurkat cells were cultured under standard conditions, whereas PBMCs were cultured in 96 U-shaped wells pre-coated with a 0.5 μg/mL solution of anti-CD3 (clone OKT3) functional quality antibody (eBioscience). Cells were collected at day 0, 3, and 6 for fluorescence analysis using a Cyan ADP LX7 (Beckman Coulter). Data were analyzed using Flowjo.
Cell proliferation dye fluor670-labeled PBMCs were stimulated to proliferate in 96-well anti-CD3 coated plates and analyzed at days 3 and 6 by FACS gating on the lymphocytes population. (A) A typical FACS analysis at day 3 is shown. (B) The division (left panel) and proliferation indices (right panel) were calculated using FlowJo. Data are representative of three independent experiments.

[7] = system: Jurkat cells; assay: Cell proliferation of CPD eFluor670-labeled Jurkat cells (FACS); type: cell-based; conditions: data not shown
Description: as §5

[8] = compounds disclosed in WO2010/06685

| Ki [1, 8] [µM] | Ki [1] [µM] | IL4I1 Inhibitor [1] | fold higher Ki ([1]; Ki compared with the other tested compounds) [fold] | SMILES | Jurkat cell proliferation measured by cell counting [2] | Jurkat cell proliferation measured by metabolic labeling [3] | apoptosis of Jurkat cells (Caspase-3 positive cells) [4] | apoptosis of PBMCs (Caspase-3 positive cells) [5] | division index [6] | proliferation index [6] | proliferation of PBMCs [6] | proliferation of Jurkat cells [7] | toxicity to Jurkat cells ([2]; six days of culture) |
| --- | --- | --- | --- | --- | --- | --- | --- | --- | --- | --- | --- | --- | --- |
| 2800 |  |  |  | NC(Cc1ccccn1)C(=O)O (stereo not shown) [2′-aza-phenylalanine, reference compound] |  |  |  |  |  |  |  |  |  |
|  | 21.3 | Yes |  | CCCNC(Cc1ccccc1)C(=O)OCC (stereo not shown) [Cp 2] | do not affect cell proliferation | do not affect cell proliferation | do not induce significant apoptosis | do not induce significant apoptosis | do not vary markedly | do not vary markedly | not substantially modified | not substantially modified |  |
|  | 102 | Yes | ~10 | CCOC(=O)C(Cc1ccccc1)N(CC)CC (stereo not shown) [Cp 13] | do not affect cell proliferation | do not affect cell proliferation | do not induce significant apoptosis | do not induce significant apoptosis | do not vary markedly | do not vary markedly | not substantially modified | not substantially modified |  |
|  | 26.9 | Yes |  | CCOC(=O)C(Cc1ccccc1)Nc1ccccc1 (stereo not shown) [Cp 15] | no cells remained after six days of culture |  |  |  |  |  |  |  | toxic |
|  | 25 | Yes |  | CCOC(=O)C(Cc1ccccc1)Nc1ccccc1C(O)C(=O)OCC (stereo not shown) [Cp 16] |  |  | does not induce apoptosis |  |  |  |  |  |  |
| 3100 |  |  |  | CCOC(=O)[C@@H](N)Cc1ccccc1 [L-phenylalanine ethyl ester, reference compound] |  |  |  |  |  |  |  |  |  |
| 2100 |  |  |  | CC(=O)N[C@@H](Cc1ccccc1)C(=O)O [N-acetyl-phenylalanine, reference compound] |  |  |  |  |  |  |  |  |  |

| SMILES | Ki [1, 8] [µM] | Ki [1] [µM] | IL4I1 Inhibitor [1] | fold higher Ki ([1]; Ki compared with the other tested compounds) [fold] | Jurkat cell proliferation measured by cell counting [2] | Jurkat cell proliferation measured by metabolic labeling [3] | apoptosis of Jurkat cells (Caspase-3 positive cells) [4] | apoptosis of PBMCs (Caspase-3 positive cells) [5] | division index [6] | proliferation index [6] | proliferation of PBMCs [6] | proliferation of Jurkat cells [7] | toxicity to Jurkat cells ([2]; six days of culture) |
| --- | --- | --- | --- | --- | --- | --- | --- | --- | --- | --- | --- | --- | --- |
| CCOC(=O)C(Cc1c(Cl)cccc1Cl)N1CCCCC1 (stereo not shown) [Cp 7] |  | 9.8 | Yes |  | strongly inhibits proliferation | strongly inhibits proliferation | induced | induced |  |  |  |  |  |
